Results: patent US9708331B2, “Metabotrophic glutamate receptor 5 modulators and methods of use thereof” (SUNOVION PHARMACEUTICALS INC., priority 2011, dated 2017)

How the values were obtained:
[1] = target: T1, mGluR5 (Homo sapiens, UniProt P41594); experiment: mGluR5 PAM EC50 (positive allosteric modulator potency); format: cell-based
[2] = target: T1, mGluR5; experiment: mGluR5 fold shift at a fixed compound concentration; format: cell-based

T1 sequence (P41594 21-1212): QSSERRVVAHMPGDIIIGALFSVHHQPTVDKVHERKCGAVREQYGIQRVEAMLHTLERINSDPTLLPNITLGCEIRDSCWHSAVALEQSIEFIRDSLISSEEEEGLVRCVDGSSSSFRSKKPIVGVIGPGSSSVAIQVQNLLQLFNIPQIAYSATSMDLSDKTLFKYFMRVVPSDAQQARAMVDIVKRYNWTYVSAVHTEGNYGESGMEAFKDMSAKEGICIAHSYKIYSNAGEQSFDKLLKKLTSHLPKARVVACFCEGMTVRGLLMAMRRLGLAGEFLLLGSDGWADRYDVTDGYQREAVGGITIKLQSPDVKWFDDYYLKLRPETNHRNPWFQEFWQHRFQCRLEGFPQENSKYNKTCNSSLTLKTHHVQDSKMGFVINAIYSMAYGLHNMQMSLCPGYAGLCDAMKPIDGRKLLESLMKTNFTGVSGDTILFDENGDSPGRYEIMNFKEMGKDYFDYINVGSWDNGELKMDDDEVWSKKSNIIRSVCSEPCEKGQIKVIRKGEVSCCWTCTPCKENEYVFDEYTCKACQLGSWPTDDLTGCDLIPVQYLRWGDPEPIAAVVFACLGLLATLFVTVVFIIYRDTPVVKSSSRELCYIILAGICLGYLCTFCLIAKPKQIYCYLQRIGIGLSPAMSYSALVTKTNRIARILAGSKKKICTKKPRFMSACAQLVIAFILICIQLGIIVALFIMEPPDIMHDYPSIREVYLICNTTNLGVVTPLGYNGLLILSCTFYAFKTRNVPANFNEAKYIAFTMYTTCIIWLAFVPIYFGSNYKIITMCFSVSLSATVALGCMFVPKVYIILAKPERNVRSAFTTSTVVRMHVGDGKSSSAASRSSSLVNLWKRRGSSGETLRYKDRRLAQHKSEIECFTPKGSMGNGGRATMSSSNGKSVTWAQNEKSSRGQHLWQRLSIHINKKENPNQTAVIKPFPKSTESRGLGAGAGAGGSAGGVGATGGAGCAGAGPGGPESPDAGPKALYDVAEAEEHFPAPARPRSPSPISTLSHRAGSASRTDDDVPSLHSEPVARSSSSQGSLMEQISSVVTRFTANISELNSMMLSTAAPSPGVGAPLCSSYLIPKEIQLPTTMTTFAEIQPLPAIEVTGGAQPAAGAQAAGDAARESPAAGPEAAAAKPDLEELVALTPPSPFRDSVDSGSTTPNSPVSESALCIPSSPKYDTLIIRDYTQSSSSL

| SMILES | EC50 [1] [nM] | Fold shift at 10 μM [2] | Fold shift at 1 μM [2] |
| --- | --- | --- | --- |
| CC1Cn2c(nc3cc(C#Cc4ccccn4)ccc3c2=O)CCC1(F)F (single isomer, unassigned) [Example 3.30f] | 10 to 30 | ++ (++ is between 2.0 and 2.9) | – |
| O=c1c2ccc(C#Cc3ccccn3)cc2nc2n1C1CCC2C1 (single isomer, unassigned) [Example 2.9a] | 10 to 30 | – | + (+ is between 1.5 and 1.9) |
| CC1(C)CCc2nc3cc(C#Cc4cccnn4)ccc3c(=O)n2C1 [Example 2.105, 8,8-dimethyl-3-(pyridazin-3-ylethynyl)-8,9-dihydro-6H-pyrido[2,1-b]quinazolin-11(7H)-one] | 30 to 100 | – | ++ (++ is between 2.0 and 2.9) |
| Cc1ncc(C#Cc2ccc3c(=O)n4c(nc3c2)CCC(C)(C)C4)s1 [Example 2.49, 8,8-dimethyl-3-((2-methylthiazol-5-yl)ethynyl)-8,9-dihydro-6H-pyrido[2,1-b]quinazolin-11(7H)-one] | < 10 | – | ++ (++ is between 2.0 and 2.9) |
| O=c1c2ccc(C#Cc3ccccn3)cc2nc2n1CC(C(F)(F)F)C2 (single isomer, unassigned) [Example 1.8a] | 10 to 30 | – | +++ (+++>3) |
| COC1(C)CCc2nc3cc(C#Cc4ccccn4)ccc3c(=O)n2CC1 (single isomer, unassigned) [Example 3.4a] | 30 to 100 | +++ (+++>3) | – |
| CC12Cc3nc4cc(C#Cc5ccccn5)ccc4c(=O)n3CC1C2 (stereo not shown) [Example 2.98, 1a-methyl-5-(pyridin-2-ylethynyl)-1a,2,10,10a-tetrahydrocyclopropa[4,5]pyrido [2,1-b]quinazolin-8(1H)-one] | < 10 | – | +++ (+++>3) |
| Cc1cccc(C#Cc2ccc3c(=O)n4c(nc3c2)CCC(C)(C)C4)n1 [Example 2.41, 8,8-dimethyl-3-((6-methylpyridin-2-yl)ethynyl)-8,9-dihydro-6H-pyrido[2,1-b]quinazolin-11(7H)-one] | 10 to 30 | – | +++ (+++>3) |
